# Source: the supplement of paper PMC10307832
# Key:
# Assay in all cases: relative viability (nuclei count vs DMSO), 5 days (fraction); higher = more cells survive
# [1] = compound: C1CC2=C(C1)C=C(C=C2)OC3=NC(=C4C(=N3)N(C=N4)CC5=CC=C(C=C5)C6=CC=CC=C6)N[C@@H](CC7=CC=CC=C7)CO [QS11] + COc1cc2c(Oc3ccc(NC(=O)C4(C(=O)Nc5ccc(F)cc5)CC4)cc3F)ccnc2cc1OCCCN1CCOCC1 [Foretinib] (partner 0.25 µM)
# Procedure, shortened: (§1)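 Nuclei were stained with Hoechst during a one-step fixation (final 0.05% Triton X-100, 1% formaldehyde, 1 ug/ml Hoechst) carried out 5 days after dosing, then counted on 4× images. The cells, lung cancer lines in 1536-well plates, had been dosed by pin tool the day after seeding with one drug alone or a fixed anchor-drug dose plus five library-drug doses (not always all listed) in √10 steps. Relative viability is the nuclei count in treated wells divided by that in vehicle wells, and each value is the median of duplicate plates.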
# [2] = compound: C1CC2=C(C1)C=C(C=C2)OC3=NC(=C4C(=N3)N(C=N4)CC5=CC=C(C=C5)C6=CC=CC=C6)N[C@@H](CC7=CC=CC=C7)CO [QS11] + CC(C)C[C@H](NC(=O)[C@H](Cc1ccccc1)NC(=O)c1cnccn1)B(O)O [Bortezomib] (partner 0.002 µM)
# Procedure, shortened: as §1
# [3] = compound: CC1=C(C=C(C=C1)NC(=O)C2=CC(=CC=C2)C(C)(C)C#N)NC3=CC4=C(C=C3)N=CN(C4=O)C [AZ628] + Cc1cc(Nc2cc(N3CCN(C)CC3)nc(Sc3ccc(NC(=O)C4CC4)cc3)n2)n[nH]1 [Tozasertib] (partner 0.1 µM)
# Procedure, shortened: as §1
# [4] = compound: C[As](C)SC[C@H](NC(=O)CC[C@H](N)C(=O)O)C(=O)NCC(=O)O [Darinaparsin] + O=C(CCCCCCC(=O)Nc1ccccc1)NO [Vorinostat] (partner 1 µM)
# Procedure, shortened: as §1
Cell Line,relative viability ([1]; first compound 0.08 µM),relative viability ([1]; first compound 0.253 µM),relative viability ([1]; first compound 0.8 µM),relative viability ([1]; first compound 2.53 µM),relative viability ([1]; first compound 8 µM),relative viability ([2]; first compound 0.08 µM),relative viability ([2]; first compound 0.253 µM),relative viability ([2]; first compound 0.8 µM),relative viability ([2]; first compound 2.53 µM),relative viability ([2]; first compound 8 µM),relative viability ([3]; first compound 0.08 µM),relative viability ([3]; first compound 0.253 µM),relative viability ([3]; first compound 0.8 µM),relative viability ([3]; first compound 2.53 µM),relative viability ([3]; first compound 8 µM),relative viability ([4]; first compound 0.08 µM),relative viability ([4]; first compound 0.8 µM),relative viability ([4]; first compound 2.53 µM),relative viability ([4]; first compound 8 µM)
NCI-H2009,1.24,1.24,1.09,0.98,1.11,0.999,0.898,0.739,0.802,0.755,0.667,0.571,0.599,0.569,0.298,0.866,0.717,0.645,0.72
SK-LU-1,0.782,0.874,0.68,0.784,0.641,1.03,1.11,1.09,1.16,1.29,–,0.275,0.287,0.255,0.283,0.742,0.784,0.591,0.702
RERF-LC-KJ,0.883,0.86,0.62,0.79,0.834,1.05,1.1,0.956,0.932,0.941,0.506,0.526,0.452,0.493,0.307,0.686,0.742,0.563,0.723
NCI-H322M,1.06,1.04,1.06,1.09,1.44,1.31,1.04,1.27,1.4,1.63,0.468,0.497,0.459,0.474,0.404,1.08,0.865,0.768,0.899
LK-2,1.13,1.38,1.41,1.13,1.09,–,–,–,–,–,0.166,0.167,0.17,0.173,0.165,0.283,0.268,0.256,0.263
SK-MES-1,0.985,0.783,0.918,0.605,0.778,–,–,–,–,–,0.952,0.875,1.01,0.959,0.443,1.11,1.07,0.924,1.43
NCI-H1299,1.14,1.11,0.956,1.04,0.948,1.03,1.06,0.915,0.969,0.841,–,–,–,–,–,–,–,–,–
NCI-H2228,0.835,0.827,0.755,1,1.03,0.974,1.04,1.15,1.26,1.12,0.241,0.288,0.239,0.272,0.161,0.771,0.839,0.388,0.672
NCI-H1792,–,–,–,–,–,–,1.06,0.684,1.01,1.07,–,–,–,–,–,–,–,–,–
LOU-NH91,0.854,0.926,0.904,0.875,0.94,0.494,0.491,0.417,0.488,0.437,0.568,0.7,0.7,0.629,0.573,0.937,0.885,0.86,0.969
IA-LM,1.22,1.15,–,1.12,0.969,0.978,0.856,0.677,0.665,0.328,–,–,–,–,–,0.947,1.07,1.2,0.89
SW 900,0.981,0.875,0.844,0.774,0.8,–,–,–,–,–,0.7,0.549,0.553,0.496,0.232,0.457,–,0.635,0.596
LU99A,0.785,0.796,0.855,0.772,0.748,0.878,1.37,1.17,1.11,0.706,0.272,0.242,0.265,0.231,0.257,0.477,0.47,0.524,0.455
NCI-H661,1,1.02,0.913,1.05,1.03,0.718,0.685,0.685,0.912,0.919,0.365,0.409,0.365,0.376,0.42,0.86,0.729,0.753,0.858
EBC-1,0.0939,0.0918,0.115,0.11,0.144,0.535,0.444,0.479,0.408,0.271,–,–,–,–,–,–,–,–,–
NCI-H3122,0.979,1.08,–,1.05,0.749,1.03,1.1,0.67,1.07,0.864,0.392,0.339,0.345,0.254,0.189,1.18,1.22,0.927,1.36
LC-2-ad,0.921,0.924,0.839,1.04,0.889,0.987,1.03,0.651,0.962,1.1,0.445,0.427,0.548,0.392,0.354,0.805,0.762,0.657,0.829
HCC-78,0.538,0.494,0.606,0.689,0.66,0.478,0.484,0.457,0.486,0.544,0.445,0.383,0.463,0.346,0.465,0.487,0.422,0.465,0.43
SW 1573,0.862,0.926,1.02,0.853,1.07,0.957,1.07,0.971,1.12,0.837,0.203,0.186,0.2,0.135,0.122,0.837,0.754,0.653,0.738
NCI-H358,0.596,0.777,1,0.936,0.52,–,–,–,–,–,0.123,0.114,0.1,0.117,0.0782,0.744,0.636,0.594,0.745
ChaGo-K-1,0.816,0.967,0.971,0.99,0.895,–,1.01,1.17,1.25,1.09,0.241,0.231,0.218,0.212,0.171,0.848,0.788,0.754,0.769

Cell Line,relative viability ([1]; first compound 0.08 µM),relative viability ([1]; first compound 0.253 µM),relative viability ([1]; first compound 0.8 µM),relative viability ([1]; first compound 2.53 µM),relative viability ([1]; first compound 8 µM),relative viability ([2]; first compound 0.08 µM),relative viability ([2]; first compound 0.253 µM),relative viability ([2]; first compound 0.8 µM),relative viability ([2]; first compound 2.53 µM),relative viability ([2]; first compound 8 µM),relative viability ([3]; first compound 0.08 µM),relative viability ([3]; first compound 0.253 µM),relative viability ([3]; first compound 0.8 µM),relative viability ([3]; first compound 2.53 µM),relative viability ([3]; first compound 8 µM),relative viability ([4]; first compound 0.08 µM),relative viability ([4]; first compound 0.8 µM),relative viability ([4]; first compound 2.53 µM),relative viability ([4]; first compound 8 µM)
201T,1.18,1.08,0.868,1.04,0.632,1.12,1.09,0.921,1.16,0.961,0.939,0.861,1.04,0.899,0.89,1.03,0.905,0.917,1.14
HCC-44,–,–,–,–,–,0.885,0.76,0.681,0.766,0.697,1.16,0.956,0.941,0.332,0.532,1.24,1.12,1.05,1.09
EMC-BAC-2,1.03,1.02,0.857,0.652,0.622,1.06,1.05,0.941,0.985,0.677,0.294,0.335,0.381,0.349,0.362,0.554,0.417,0.546,0.42
NCI-H2405,1,0.986,1,1.08,1.16,0.926,0.946,0.895,1.03,1.03,0.5,0.637,0.539,0.529,0.457,1.07,1.02,0.924,1.12
NCI-H2342,1.02,1.07,1.07,1.02,1.19,–,–,–,–,–,0.616,0.529,0.673,0.514,0.471,0.876,0.721,0.734,0.828
HOP-62,1.11,1.33,0.766,0.742,0.708,0.718,1.01,0.728,0.594,0.652,0.396,0.38,0.362,0.358,0.326,0.765,0.654,0.522,0.819
NCI-H1651,0.787,0.901,0.822,0.671,0.698,0.954,1.06,0.804,0.959,0.994,0.726,0.656,0.579,0.653,0.43,0.523,0.558,0.58,0.571
NCI-H2085,1.01,0.886,0.911,1.02,1,0.952,1.03,1.16,1.06,1,0.754,0.899,0.935,0.743,0.382,0.73,0.732,0.827,0.764
NCI-H2023,0.721,0.883,0.686,0.999,0.852,0.917,0.996,0.877,0.994,0.898,0.308,0.284,0.235,0.212,0.137,0.662,0.554,0.707,0.666
UMC-11,1.13,1.1,1.07,1.32,1.06,0.668,0.851,0.816,1.01,0.68,0.228,0.21,0.194,0.212,0.203,0.339,0.314,0.384,0.308
NCI-H1395,0.893,0.964,1.02,1,1.09,–,–,–,–,–,0.814,0.809,0.753,0.742,0.681,0.813,0.722,0.582,0.589
NCI-H2170,1.02,0.987,0.77,1.06,1.06,–,–,–,–,–,0.823,0.741,0.693,0.852,0.667,0.967,0.694,0.676,1.17
NCI-H522,–,–,–,–,–,–,–,–,–,–,0.578,0.547,0.542,0.523,0.57,0.85,0.909,0.798,0.905
NCI-H1648,–,–,–,–,–,–,–,–,–,–,0.624,0.615,0.613,0.539,0.427,–,0.301,–,0.56
NCI-H1563,0.971,0.876,1.06,1.07,0.916,0.822,0.825,0.853,0.769,0.722,–,–,–,–,–,–,–,–,–
NCI-H1703,0.306,0.309,0.333,0.422,0.322,0.323,0.376,0.254,0.236,0.203,–,–,–,–,–,–,–,–,–
NCI-H1793,0.796,0.657,0.767,0.573,0.935,–,–,–,–,–,0.488,0.335,0.372,0.264,0.18,0.653,0.731,–,0.911
Calu-6,1.04,0.93,0.897,0.953,0.998,1.12,1.07,0.953,1.06,0.817,–,–,–,–,–,–,–,–,–
NCI-H1944,0.886,0.967,–,0.641,0.671,–,–,–,–,–,0.26,0.227,0.235,0.249,0.209,0.595,0.542,0.61,0.682
NCI-H1623,0.807,0.829,0.751,0.775,1.01,–,–,–,–,–,0.528,0.388,0.406,0.381,0.307,–,–,–,–
A549,0.911,0.883,0.697,0.918,0.917,–,–,–,–,–,–,–,–,–,–,–,–,–,–
